Assay results taken from ChEMBL document CHEMBL5209571, “Membrane potential based assay for SLC13A3 using HEK-293 SLC13A3 OE cells” (2022).

Target: T1, Na(+)/dicarboxylate cotransporter 3 (Homo sapiens, UniProt Q8WWT9)
T1 sequence (Q8WWT9 whole entry): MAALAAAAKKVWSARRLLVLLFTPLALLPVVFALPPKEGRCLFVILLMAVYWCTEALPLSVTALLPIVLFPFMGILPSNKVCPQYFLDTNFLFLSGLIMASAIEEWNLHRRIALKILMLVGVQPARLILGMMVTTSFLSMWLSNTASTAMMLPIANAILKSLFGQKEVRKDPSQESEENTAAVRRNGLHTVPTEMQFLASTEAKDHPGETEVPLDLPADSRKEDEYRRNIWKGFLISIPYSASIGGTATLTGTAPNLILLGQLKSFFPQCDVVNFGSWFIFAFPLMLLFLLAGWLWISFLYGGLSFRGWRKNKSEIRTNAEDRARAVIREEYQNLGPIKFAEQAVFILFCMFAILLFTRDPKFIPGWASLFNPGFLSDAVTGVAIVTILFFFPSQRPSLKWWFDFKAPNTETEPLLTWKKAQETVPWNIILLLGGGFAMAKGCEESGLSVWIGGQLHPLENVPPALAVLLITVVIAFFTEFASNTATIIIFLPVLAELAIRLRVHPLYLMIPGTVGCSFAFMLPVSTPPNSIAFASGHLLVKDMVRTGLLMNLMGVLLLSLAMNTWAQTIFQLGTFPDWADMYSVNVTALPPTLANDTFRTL
Assay: Substrate uptake by the Na(+)/Dicarboxylate Cotransporter 3 (NADC3, SLC13A3) as assessed by the fluorescent FLIPR membrane potential dye in HEK-293 JumpIN-SLC13A3 cells (PubChem AID: 1794820)
Assay type: functional, cell-based, HEK293

Row | Compound | EC50
1 | O=C(O)CCC(=O)C(=O)O [ALPHA-KETOGLUTARIC ACID] | 54 µM
2 | O=C(O)CCC(=O)O [SUCCINIC ACID] | 107 µM
